Structures can show the parent of a compound that is named as a salt. Where two headings read alike, the source gives them in different places.
Assays:
EoL-1-cell = assay: Cytotoxicity assay (CellTiterGlo, 72 hours treatment), EoL-1; type: cell-based, Human; settings: ATP determination, read-out: Cell line IC50 EoL-1-cell
Experimental: (§1) Cell Lines and Cell Cultures
(§2) All cell lines were seeded at a density ranging from 2,400 to 8,000 cells/well in 384-well cell culture microplates and incubated at […] in a humidified 5% […] atmosphere 24 hours before treatment. Compound solutions were directly administered to the cells using the D300e digital dispenser (Tecan) to obtain scalar final concentrations ranging from 5 nM to 10 μM (duplicate wells for each point), with 80 uL final volume per well. The final DMSO concentration in test wells was adjusted to 0.1% (v/v); control wells were mock-treated and contained the same final concentration of DMSO.
(§3) Cell viability was determined after 72 hours treatment by ATP determination in each test well with a luciferase-based detection system (CellTiterGlo, Promega, Madison, WI, USA), following manufacturer's instructions. The intensity of emitted light was measured using an EnVision reader (PerkinElmer, Waltham, MA USA) and expressed as RLU. One to three independent experiments were performed for each cell line, as indicated.
(§4) Analysis of Antiproliferative Data
(§5) Cell growth inhibitory activity was evaluated comparing treated versus control data using the Assay Explorer software suite (Symix Technologies Inc.). IC50s values were calculated by sigmoidal fitting interpolation using the following quadriparametric Hill equation: […]
(§6) The Top, Bottom and Hill slope parameters were left free to assume any value, but only curves whose Hill slope had values between 0.5 and 4 were arbitrarily considered acceptable and used to calculate the average IC50s. Curves too steep (HillSlope≥4) or too slight (HillSlope≤0.5) were not included (Table C).

MOLM-13 = assay: Cytotoxicity assay (CellTiterGlo, 72 hours treatment), MOLM-13; type: cell-based, Human; settings: MOLM-13 acute myeloid leukemia cells, ATP determination, read-out: Cell line IC50 MOLM-13
Experimental: as §1, §2, §3, §4, §5, §6

NB-4 = assay: Cytotoxicity assay (CellTiterGlo, 72 hours treatment), NB-4; type: cell-based, Human; settings: NB-4 acute myeloid leukemia cells, ATP determination, read-out: Cell line IC50 NB-4
Experimental: as §1, §2, §3, §4, §5, §6

CDK11A = target: T1, CDK11A (Homo sapiens, UniProt Q9UQ88); settings: displacement of SNS-032-Atto590 probe (0.002 μM) from CDK11A-p58 (0.032 uM), fluorescence polarization;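 further: compound preincubated 30 min with CDK11A-p58, then probe added and polarization (mP) read 15 min later, 0% displacement is probe plus enzyme, 100% is probe alone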
T1 sequence (Q9UQ88 346-783): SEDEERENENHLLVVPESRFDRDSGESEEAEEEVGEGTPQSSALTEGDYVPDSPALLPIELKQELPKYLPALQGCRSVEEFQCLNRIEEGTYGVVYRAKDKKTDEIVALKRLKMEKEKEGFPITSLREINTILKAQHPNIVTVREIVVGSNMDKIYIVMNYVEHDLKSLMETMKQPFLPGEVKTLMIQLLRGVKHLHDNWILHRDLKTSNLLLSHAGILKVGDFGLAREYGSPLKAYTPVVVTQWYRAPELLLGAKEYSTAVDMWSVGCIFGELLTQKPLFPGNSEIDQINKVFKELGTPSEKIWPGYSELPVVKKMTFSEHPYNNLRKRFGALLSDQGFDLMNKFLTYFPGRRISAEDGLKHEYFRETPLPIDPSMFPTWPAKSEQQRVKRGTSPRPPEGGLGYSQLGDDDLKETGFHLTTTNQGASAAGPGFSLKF

[1] = Homo sapiens, EOL1, 72 h, EoL-1 acute myeloid leukemia cells

Compound	IC50 (EoL-1-cell; [1])	IC50 (MOLM-13; Homo sapiens, MOLM-13, 72 h)	IC50 (NB-4; Homo sapiens, NB-4, 72 h)	DC50 (CDK11A)	IC50 (EoL-1-cell; EoL-1 acute myeloid leukemia cells)	IC50 (MOLM-13)	IC50 (NB-4)	IC50 (EoL-1-cell; Homo sapiens, EOL1, EoL-1 acute myeloid leukemia cells)	IC50 (MOLM-13; Homo sapiens)	IC50 (NB-4; Homo sapiens)
N#Cc1ccc(F)c(-c2ccc3[nH]nc(NC(=O)[C@@H]4CCCNC4)c3c2)c1 [cpd 25, (3R)-N-[5-(5-Cyano-2-fluorophenyl)-1H-indazol-3-yl]piperidine-3-carboxamide hydrochloride]	1.73 µM	2.86 µM	1.66 µM	0.031 µM						
N#Cc1ccc(Cl)c(-c2ccc3[nH]nc(NC(=O)[C@@H]4CCC5(CCCCC5)NC4)c3c2)c1 (single isomer, unassigned) [compound 206, (3+)-N-[5-(2-Chloro-5-cyanophenyl)-1H-indazol-3-yl]-1-azaspiro[5.5]undecane-3-carboxamide]	0.18 µM	0.194 µM	0.205 µM	0.023 µM						
N#Cc1ccc(Cl)c(-c2ccc3[nH]nc(NC(=O)C4CCCNC4)c3c2)c1 (stereo not shown) [compound 171, N-[5-(2-Chloro-5-cyanophenyl)-1H-indazol-3-yl]piperidine-3-carboxamide hydrochloride]	0.332 µM	0.52 µM	0.416 µM	0.028 µM						
O=C(Nc1n[nH]c2ccc(-c3c(F)cccc3Cl)cc12)C1CCCNC1 (stereo not shown) [compound 165, N-[5-(2-Chloro-6-fluorophenyl)-1H-indazol-3-yl]piperidine-3-carboxamide hydrochloride]	0.484 µM	0.463 µM	0.629 µM	0.036 µM						
CC1(C)CCC(C(=O)Nc2n[nH]c3ccc(-c4cc(C#N)ccc4Cl)cc23)CN1 (single isomer, unassigned; (+)) [compound 202, (+)-N-[5-(2-Chloro-5-cyanophenyl)-1H-indazol-3-yl]-6,6-dimethylpiperidine-3-carboxamide]				0.015 µM	0.073 µM	0.077 µM	0.056 µM			
CC1(C)CCC(C(=O)Nc2n[nH]c3ccc(-c4cc(C#N)ccc4Cl)cc23)CN1 (stereo not shown) [compound 184, N-[5-(2-Chloro-5-cyanophenyl)-1H-indazol-3-yl]-6,6-dimethylpiperidine-3-carboxamide hydrochloride]	0.16 µM	0.164 µM	0.151 µM	0.029 µM						
CNC1CC(C(=O)Nc2n[nH]c3ccc(-c4c(Cl)cccc4Cl)cc23)C1 (stereo not shown) [compound 145, N-[5-(2,6-Dichlorophenyl)-1H-indazol-3-yl]-3-(methylamino)cyclobutanecarboxamide hydrochloride]	0.663 µM	0.483 µM	0.52 µM	0.044 µM						
O=C(Nc1n[nH]c2ccc(-c3c(Cl)cccc3Cl)cc12)C1CCCNC1 (stereo not shown) [compound 157, N-[5-(2,6-Dichlorophenyl)-1H-indazol-3-yl]piperidine-3-carboxamide hydrochloride]	0.59 µM	0.521 µM	0.512 µM	0.059 µM						
O=C(Nc1n[nH]c2ccc(-c3c(Cl)cccc3Cl)cc12)[C@@H]1CCNC1 [compound 167, (3R)-N-[5-(2,6-Dichlorophenyl)-1H-indazol-3-yl]pyrrolidine-3-carboxamide hydrochloride]	0.651 µM	0.61 µM	0.525 µM	0.027 µM						
N#Cc1ccc(Cl)c(-c2ccc3[nH]nc(NC(=O)C4CCC5(CCCC5)NC4)c3c2)c1 (stereo not shown) [compound 185, N-[5-(2-Chloro-5-cyanophenyl)-1H-indazol-3-yl]-6-azaspiro[4.5]decane-8-carboxamide hydrochloride]	0.294 µM	0.261 µM	0.204 µM	0.021 µM						
N#Cc1ccc(Cl)c(-c2ccc3[nH]nc(NC(=O)[C@@H]4CCC5(CCCC5)NC4)c3c2)c1 (single isomer, unassigned) [compound 204, (8+)-N-[5-(2-Chloro-5-cyanophenyl)-1H-indazol-3-yl]-6-azaspiro[4.5]decane-8-carboxamide hydrochloride]	0.237 µM	0.194 µM	0.211 µM	0.03 µM						
Cc1ccc(C#N)cc1-c1ccc2[nH]nc(NC(=O)[C@@H]3CCCNC3)c2c1 [cpd 24, (3R)-N-[5-(5-Cyano-2-methylphenyl)-1H-indazol-3-yl]piperidine-3-carboxamide hydrochloride]	0.423 µM	0.563 µM	0.595 µM	0.043 µM						
N#Cc1ccc(Cl)c(-c2ccc3[nH]nc(NC(=O)[C@@H]4CCNC4)c3c2)c1 [compound 176, (3R)-N-[5-(2-Chloro-5-cyanophenyl)-1H-indazol-3-yl]pyrrolidine-3-carboxamide hydrochloride]	0.425 µM	0.505 µM	0.384 µM	0.018 µM						
CC(=O)c1ccc(Cl)c(-c2ccc3[nH]nc(NC(=O)[C@@H]4CCCNC4)c3c2)c1 [cpd 33, (3R)-N-[5-(5-Acetyl-2-chlorophenyl)-1H-indazol-3-yl]piperidine-3-carboxamide hydrochloride]	1.38 µM	1.35 µM	1.56 µM	0.019 µM						
N#Cc1ccc(Cl)c(-c2ccc3[nH]nc(NC(=O)C4CCC5(CCCCC5)NC4)c3c2)c1 (stereo not shown) [compound 186, N-[5-(2-Chloro-5-cyanophenyl)-1H-indazol-3-yl]-1-azaspiro[5.5]undecane-3-carboxamide hydrochloride]	0.315 µM	0.303 µM	0.365 µM	0.065 µM						
CCNC1CC(C(=O)Nc2n[nH]c3ccc(-c4cc(C#N)ccc4Cl)cc23)C1 (stereo not shown) [compound 152, N-[5-(2-Chloro-5-cyanophenyl)-1H-indazol-3-yl]-3-(ethylamino)cyclobutanecarboxamide hydrochloride]	0.191 µM	0.203 µM	0.226 µM	0.031 µM						
N#Cc1ccc(Cl)c(-c2ccc3[nH]nc(NC(=O)[C@@H]4CCCNC4)c3c2)c1 [compound 174, (3R)-N-[5-(2-Chloro-5-cyanophenyl)-1H-indazol-3-yl]piperidine-3-carboxamide hydrochloride]	0.165 µM	0.19 µM	0.171 µM	0.023 µM						
Cc1ccc(F)c(-c2ccc3[nH]nc(NC(=O)[C@@H]4CCCNC4)c3c2)c1 [cpd 32, (3R)-N-[5-(2-Fluoro-5-methylphenyl)-1H-indazol-3-yl]piperidine-3-carboxamide hydrochloride]	2.04 µM	1.51 µM	2.48 µM	0.023 µM						
O=C(Nc1n[nH]c2ccc(-c3cc([N+](=O)[O-])ccc3Cl)cc12)[C@@H]1CCCNC1 [cpd 26, (3R)-N-[5-(2-Chloro-5-nitrophenyl)-1H-indazol-3-yl]piperidine-3-carboxamide hydrochloride]				0.023 µM				0.126 µM	0.154 µM	0.141 µM
CN1CCC(C(=O)Nc2n[nH]c3ccc(-c4ccc(F)c(F)c4F)cc23)CC1 [compound 128, 1-Methyl-N-[5-(2,3,4-trifluorophenyl)-1H-indazol-3-yl]piperidine-4-carboxamide hydrochloride]				0.468 µM						
O=C(Nc1n[nH]c2ccc(-c3cc(F)ccc3F)cc12)[C@@H]1CCCNC1 [cpd 35, (3R)-N-[5-(2,5-Difluorophenyl)-1H-indazol-3-yl]piperidine-3-carboxamide hydrochloride]				0.035 µM						
CC(C)Oc1ccc2[nH]nc(NC(=O)[C@@H]3CCCNC3)c2c1 [cpd 230, (3R)-N-[5-(Propan-2-yloxy)-1H-indazol-3-yl]piperidine-3-carboxamide hydrochloride]				0.027 µM						

From patent US20250206724A1, “SUBSTITUTED 3-AMINO INDAZOLE DERIVATIVES AS KINASE INHIBITORS” (NERVIANO MEDICAL SCIENCES S.R.L., priority 2022, published 2025)
